Data on four molecules can be found in patent US9593149B2, “Amylin and calcitonin receptor agonist” (Novo Nordisk A/S, priority 2014, dated 2017).

SMILES strings stand for the structures. Numbered stars: 1 amine (or outer) side, 2 acyl side, 3 side chain; on linkers, the order of the positions; unused ones are H or OH. Peptide text beside a SMILES is read from it. * marks the point of attachment. C20 diacid = O=C(O)CCCCCCCCCCCCCCCCCCC(=O)*; γGlu = O=C(O)[C@H](CCC(=O)[*:2])N[*:1]; C14 diacid = O=C(O)CCCCCCCCCCCCC(=O)*

For data set [1], the target named is T1, human amylin 3(a) receptor (human calcitonin receptor + RAMP-3), BHK570 cells (Homo sapiens, UniProt O60896+P30988).
T1 construct: host or cells: BHK570
The data set is described as follows: Assay (II)b functional CRE-luciferase assay without albumin, human amylin receptor. Particulars: Tested without HSA; read-out: hAmylin-R funct. EC50. The class given is cell-based. From the text: (§1) Assay(II)b—Human Calcitonin and Amylin Receptor Assay without Albumin
(§2) 1. Luciferase Assay Outline
(§3) Activation of calcitonin and amylin (co-expression of calcitonin receptor and receptor activity modifying proteins (RAMP)) receptors lead to increased intracellular concentrations of cAMP. Consequently, transcription is activated by promoters containing multiple copies of the cAMP response element (CRE). It is thus possible to measure amylin activity by the use of a CRE luciferase reporter gene introduced into BHK cells also expressing calcitonin or amylin receptors.
(§4) 2. Construction of Calcitonin (a)—and Amylin 3(a)—Receptor/CRE-Luc Cell Line.
(§5) A BHK570 cell line was stably transfected with the human calcitonin receptor and a CRE-responsive luciferase reporter gene (Hollex-1 cell line, obtained from ZymoGenetics described in U.S. Pat. No. 5,622,839). The cell line was further transfected with RAMP-3, using standard methods. This turns the calcitonin receptor into an amylin 3(a) receptor. Methotrexate, Neomycin, and Hygromycin are selection markers for luciferase, the calcitonin receptor, and RAMP-3, respectively. To prepare the batches of frozen cells used in the luciferase assay described in the section below, the cells were cultured in growth medium (DMEM with 10% FBS, 1% Pen/Strep and 1 mM Napyruvate). […] Cells at approximately 80-90% confluence were washed with PBS and loosened from the plates with Versene. After centrifugation (2 min, 1300 rpm, in a Centrion Scientific centriuge C2 series with a BRK 5510 rotor head), the cell pellet was dissolved in 10% DMSO, 30% FBS and 60% growth medium and frozen (−80° C.) until utilization.
(§6) The day before the experiment, BHK calcitonin (a) receptor- or amylin 3(a)-receptor/CRE-luc cells were thawed, washed twice, and seeded in 40 μl growth medium on white 384 well culture plates (4.000 cells/well). On the assay day, the cells were washed 3 times in assay media (Dulbecco media W/o phenol red, 500 ml (Gibco, 11880-028); 0.1% ovalbumin; 10 mM Hepes pH 7.4; 1× Glutamin; 1% Pen/Strep). Then, 30 μl/well of sample diluted in assay buffer was added. After 3 hours of incubation at 37° C. and 5% CO2, the reaction was terminated by adding 30 μl/well SteadyLite Plus™. The plates were shaken at 300 rpm for 5 min at RT. Then, the plates were sealed and incubated at room temperature for 30 minutes. Finally, luminescence was tested on a TopCounter (Packard) in SPC (single photon counting) mode.
(§7) Additional Comment Regarding Use of Data Retrieved Via this Method
(§8) For the same reasons, measurements made in Assay IIa should not be compared in Assay IIb.

In data set [2] the target is T2, human calcitonin (a) receptor, BHK570 cells (Homo sapiens, UniProt P30988).
T2 construct: host or cells: BHK570
T2 sequence (P30988 25-474): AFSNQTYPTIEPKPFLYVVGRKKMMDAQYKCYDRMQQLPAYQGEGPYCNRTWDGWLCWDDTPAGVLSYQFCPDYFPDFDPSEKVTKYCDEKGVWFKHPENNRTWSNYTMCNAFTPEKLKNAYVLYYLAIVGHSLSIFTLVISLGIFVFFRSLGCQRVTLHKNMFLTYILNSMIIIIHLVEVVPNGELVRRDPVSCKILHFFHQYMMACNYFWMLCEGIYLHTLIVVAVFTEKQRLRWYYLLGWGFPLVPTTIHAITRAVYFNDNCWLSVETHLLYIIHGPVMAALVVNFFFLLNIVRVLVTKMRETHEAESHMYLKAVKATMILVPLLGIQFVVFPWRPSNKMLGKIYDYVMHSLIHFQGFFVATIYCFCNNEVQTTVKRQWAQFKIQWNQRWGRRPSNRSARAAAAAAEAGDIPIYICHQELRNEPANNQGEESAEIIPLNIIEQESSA
The data set is described as follows: Assay (II)b functional CRE-luciferase assay without albumin, human calcitonin receptor. The class given is cell-based. Particulars: Tested without HSA; read-out: hCTR funct. EC50.
From the text: as §1, §2, §3, §4, §5, §6, §7, §8

A short description of data set [3]: Assay (IV) determination of solubility. It is filed as physicochemical. The method, then: Assay (IV)—Determination of Solubility
The mimylin peptide was dissolved in water at ˜500 nmol/ml and mixed 1:1 with a series of buffers (100 mM glycylglycine pH 3.0, 100 mM glycylglycine pH 4.0, 100 mM glycylglycine pH 5.0, 100 mM bistrispropane pH 6.0, 100 mM bistrispropane pH 6.5, 100 mM bistrispropane pH 7.0, 100 mM bistrispropane pH 7.5, 100 mM bistrispropane pH 8.0).

Data set [4] deals with T3, rat calcitonin receptor (Rattus norvegicus, UniProt P32214).
T3 construct: expressed in transfected cells; host or cells: BHK tk'ts 13 (transient, FuGENE 6)
T3 sequence (P32214 25-479 isoform P32214-2 limits assumed): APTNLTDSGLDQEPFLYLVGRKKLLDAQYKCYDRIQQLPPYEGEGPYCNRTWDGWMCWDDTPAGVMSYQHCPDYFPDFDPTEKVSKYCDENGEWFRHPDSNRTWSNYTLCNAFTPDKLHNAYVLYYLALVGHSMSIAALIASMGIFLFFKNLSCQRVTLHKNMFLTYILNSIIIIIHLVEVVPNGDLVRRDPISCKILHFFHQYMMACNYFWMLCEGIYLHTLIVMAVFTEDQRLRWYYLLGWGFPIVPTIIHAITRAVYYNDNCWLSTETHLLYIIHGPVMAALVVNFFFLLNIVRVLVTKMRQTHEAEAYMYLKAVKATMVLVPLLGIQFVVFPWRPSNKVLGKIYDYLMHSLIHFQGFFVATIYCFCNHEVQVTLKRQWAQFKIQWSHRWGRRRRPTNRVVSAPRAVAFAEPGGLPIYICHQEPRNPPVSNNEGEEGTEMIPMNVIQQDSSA
The experiment in a line: Assay (VIII) binding to the rat calcitonin receptor. Particulars: membranes; read-out: rCT-R binding IC50. In outline:
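Affinity given as IC50 from a one-site competition fit of bound radioactivity, counted by scintillation after cold HBSS washes and NaOH/SDS lysis. Membranes came from BHK tk'ts 13 cells transiently expressing the rat receptor; other conditions followed the human calcitonin receptor protocol.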

T1 sequence (O60896 24-148, one chain of several): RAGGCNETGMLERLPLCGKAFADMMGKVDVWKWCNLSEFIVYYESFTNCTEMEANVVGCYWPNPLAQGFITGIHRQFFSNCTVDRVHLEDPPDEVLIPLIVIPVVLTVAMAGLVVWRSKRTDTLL

The term EC50 denotes the concentration at which the effect is half-maximal. On to `CC(C)C[C@H](NC(=O)CNC(=O)[C@H](CO)NC(=O)[C@H](C)N)C(=O)N[C@@H](CO)C(=O)N[C@H](C(=O)N[C@@H](C)C(=O)N[C@H](C(=O)N[C@@H](CC(C)C)C(=O)NCC(=O)N[C@@H](CCCNC(=N)N)C(=O)N[C@@H](CC(C)C)C(=O)N[C@@H](CO)C(=O)N[C@@H](CCC(N)=O)C(=O)N[C@@H](CCC(=O)O)C(=O)N[C@@H](CC(C)C)C(=O)N[C@@H](Cc1c[nH]cn1)C(=O)N[C@@H](CCC(=O)O)C(=O)N[C@@H](CC(C)C)C(=O)N[C@@H](CCC(N)=O)C(=O)N[C@H](C(=O)N[C@@H](Cc1ccc(O)cc1)C(=O)N1CCC[C@H]1C(=O)N[C@@H](CCCNC(=N)N)C(=O)N[C@H](C(=O)N[C@@H](CCC(=O)O)C(=O)N[C@H](C(=O)NCC(=O)N[C@@H](CO)C(=O)NCC(=O)N[C@H](C(=O)N[C@@H](Cc1ccc(O)cc1)C(N)=O)[C@@H](C)O)[C@@H](C)O)[C@@H](C)O)[C@@H](C)O)[C@@H](C)O)[C@@H](C)O` [124bb, [des1, 4G, 9T, 15Q, 21Q, 23Y, 30S, 31G, 32T, 33Y]mimylin] (H-ASGLSTATLGRLSQELHELQTYPRTETGSGTY-NH2; N-terminus and C-terminus assumed), for which the values for the 50% effective concentration (EC50) in data set [1] and in data set [2] were 5 pM and 4 pM, respectively.
For orientation: IC50 means the concentration needed to halve the response being measured. Turning to `CC(C)C[C@H](NC(=O)[C@H](C)NC(=O)[C@H](C)NC(=O)[C@@H](NC(=O)[C@H](CO)NC(=O)[C@H](CC(C)C)NC(=O)[C@H](CCC(=O)O)NC(=O)[C@H](CO)NC(=O)[C@H](C)NC(=O)CCCCCCCCCCCCC(=O)O)[C@@H](C)O)C(=O)NCC(=O)N[C@@H](CCCNC(=N)N)C(=O)N[C@@H](CC(C)C)C(=O)N[C@@H](CO)C(=O)N[C@@H](C)C(=O)N[C@@H](CCC(=O)O)C(=O)N[C@@H](CC(C)C)C(=O)N[C@@H](Cc1cnc[nH]1)C(=O)N[C@@H](CCC(=O)O)C(=O)N[C@@H](CC(C)C)C(=O)N[C@@H](C)C(=O)N[C@H](C(=O)N[C@@H](CC(C)C)C(=O)N1CCC[C@H]1C(=O)N[C@@H](CCCNC(=N)N)C(=O)N[C@H](C(=O)N[C@@H](CCC(=O)O)C(=O)N[C@H](C(=O)NCC(=O)N[C@@H](CO)C(=O)NCC(=O)N[C@@H](CO)C(=O)N1CCC[C@H]1C(N)=O)[C@@H](C)O)[C@@H](C)O)[C@@H](C)O` [compound 51, [N-terminal(C14 diacid), des1, 30S, 31G]mimylin] ({C14 diacid}-ASELSTAALGRLSAELHELATLPRTETGSGSP-NH2), the Solubility result in data set [3] (pH 3.0), in data set [3] (pH 4.0), in data set [3] (pH 5.0), in data set [3] (pH 6.0), in data set [3] (pH 6.5) and in data set [3] (pH 7.0) was “≧200 μM” in each case. The Solubility result in data set [3] (pH 7.5) and in data set [3] (pH 8.0) was “≧200 μM” each time. In addition, the 50% inhibitory concentration (IC50) in data set [4] is 123 pM.
As for `CC(C)C[C@H](NC(=O)[C@H](C)NC(=O)[C@H](C)NC(=O)[C@@H](NC(=O)[C@H](CO)NC(=O)[C@H](CC(C)C)NC(=O)[C@H](CCC(=O)O)NC(=O)[C@H](CO)NC(=O)[C@H](C)NC(=O)CC[C@H](NC(=O)CCCCCCCCCCCCCCCCCCC(=O)O)C(=O)O)[C@@H](C)O)C(=O)NCC(=O)N[C@@H](CCCNC(=N)N)C(=O)N[C@@H](CC(C)C)C(=O)N[C@@H](CO)C(=O)N[C@@H](C)C(=O)N[C@@H](CCC(=O)O)C(=O)N[C@@H](CC(C)C)C(=O)N[C@@H](Cc1cnc[nH]1)C(=O)N[C@@H](CCC(=O)O)C(=O)N[C@@H](CC(C)C)C(=O)N[C@@H](C)C(=O)N[C@H](C(=O)N[C@@H](CC(C)C)C(=O)N1CCC[C@H]1C(=O)N[C@@H](CCCNC(=N)N)C(=O)N[C@H](C(=O)N[C@@H](CCC(=O)O)C(=O)N[C@H](C(=O)NCC(=O)N[C@@H](CO)C(=O)NCC(=O)N[C@@H](CO)C(=O)N[C@@H](Cc1cnc[nH]1)C(N)=O)[C@@H](C)O)[C@@H](C)O)[C@@H](C)O` [compound 60, [N-terminal(C20 diacid-gGlu), des1, 30S, 31G, 33H]mimylin] ({C20 diacid-γGlu}-ASELSTAALGRLSAELHELATLPRTETGSGSH-NH2), the Solubility result in data set [3] (pH 3.0), in data set [3] (pH 4.0), in data set [3] (pH 5.0), in data set [3] (pH 6.0), in data set [3] (pH 6.5) and in data set [3] (pH 7.0) was “≧200 μM” in each case. The Solubility result in data set [3] (pH 7.5) and in data set [3] (pH 8.0) was “≧200 μM” each time. The IC50 in data set [4] was 20 pM.
Regarding `CC(C)C[C@H](NC(=O)CNC(=O)[C@H](CO)NC(=O)[C@H](C)N)C(=O)N[C@@H](CO)C(=O)N[C@H](C(=O)N[C@@H](C)C(=O)N[C@H](C(=O)N[C@@H](CC(C)C)C(=O)NCC(=O)N[C@@H](CCCNC(=N)N)C(=O)N[C@@H](CC(C)C)C(=O)N[C@@H](CO)C(=O)N[C@@H](CCC(N)=O)C(=O)N[C@@H](CCC(=O)O)C(=O)N[C@@H](CC(C)C)C(=O)N[C@@H](Cc1c[nH]cn1)C(=O)N[C@@H](CCC(=O)O)C(=O)N[C@@H](CC(C)C)C(=O)N[C@@H](CCC(N)=O)C(=O)N[C@H](C(=O)N[C@@H](Cc1ccc(O)cc1)C(=O)N1CCC[C@H]1C(=O)N[C@@H](CCCNC(=N)N)C(=O)N[C@H](C(=O)N[C@@H](CCC(=O)O)C(=O)N[C@H](C(=O)NCC(=O)N[C@@H](CO)C(=O)NCC(=O)N[C@H](C(=O)N[C@@H](Cc1ccc(O)cc1)C(N)=O)[C@@H](C)O)[C@@H](C)O)[C@@H](C)O)[C@@H](C)O)C(C)C)[C@@H](C)O` [118bb, [des1, 4G, 9V, 15Q, 21Q, 23Y, 30S, 31G, 32T, 33Y]mimylin], the figures for the EC50 in data set [1] and in data set [2] were 8 pM and 4 pM, respectively.
